{"source": "PubChem BioAssay (NCI)", "experiment_in_all_cases": "NCI-60 cell line screen, 48 h", "key": {"SF-295 CNS": {"test_system": "SF-295 CNS"}, "SK-MEL-28 melanoma": {"test_system": "SK-MEL-28 melanoma"}, "TK-10 renal": {"test_system": "TK-10 renal"}, "UO-31 renal": {"test_system": "UO-31 renal"}, "SN12C renal": {"test_system": "SN12C renal"}, "SF-539 CNS": {"test_system": "SF-539 CNS"}, "NCI-H460 lung": {"test_system": "NCI-H460 lung"}, "OVCAR-4 ovarian": {"test_system": "OVCAR-4 ovarian"}, "BT-549 breast": {"test_system": "BT-549 breast"}, "PC-3 prostate": {"test_system": "PC-3 prostate"}}, "note": "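How tested: cells in 96-well plates exposed to compound for 48 hours at five concentrations. Here, GI50 denotes the concentration required for 50% inhibition of growth. The concentration for full growth arrest is given as TGI.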"}
{"smiles": "O=C1CCCCC2N(C(c3ccccc3)c3ccccc3)CC[C@@]12c1ccccc1", "note": "(mixture of isomers)", "values": [{"measurement": "TGI", "setting": "SF-295 CNS", "result": "> 10", "unit": "µM"}, {"measurement": "TGI", "setting": "SK-MEL-28 melanoma", "result": "> 10", "unit": "µM"}, {"measurement": "TGI", "setting": "TK-10 renal", "result": "> 10", "unit": "µM"}, {"measurement": "TGI", "setting": "UO-31 renal", "result": "> 10", "unit": "µM"}, {"measurement": "TGI", "setting": "SN12C renal", "result": "> 10", "unit": "µM"}, {"measurement": "TGI", "setting": "SF-539 CNS", "result": "> 10", "unit": "µM"}, {"measurement": "TGI", "setting": "NCI-H460 lung", "result": "> 10", "unit": "µM"}, {"measurement": "TGI", "setting": "OVCAR-4 ovarian", "result": "> 10", "unit": "µM"}]}
{"smiles": "O=C1NN(C2=NNC3(C(=O)N2)c2ccccc2-c2ccccc23)C(c2ccccc2)=N/C1=C/c1ccc(O)cc1", "values": [{"measurement": "GI50", "setting": "SF-295 CNS", "result": 56.9, "unit": "mg/L"}, {"measurement": "TGI", "setting": "SF-295 CNS", "result": "> 150", "unit": "mg/L"}, {"measurement": "GI50", "setting": "SK-MEL-28 melanoma", "result": 83, "unit": "mg/L"}, {"measurement": "TGI", "setting": "SK-MEL-28 melanoma", "result": "> 150", "unit": "mg/L"}, {"measurement": "GI50", "setting": "TK-10 renal", "result": 39.1, "unit": "mg/L"}, {"measurement": "TGI", "setting": "TK-10 renal", "result": 71.9, "unit": "mg/L"}, {"measurement": "GI50", "setting": "UO-31 renal", "result": 48.9, "unit": "mg/L"}, {"measurement": "TGI", "setting": "UO-31 renal", "result": "> 150", "unit": "mg/L"}, {"measurement": "GI50", "setting": "SN12C renal", "result": 74.2, "unit": "mg/L"}, {"measurement": "TGI", "setting": "SN12C renal", "result": "> 150", "unit": "mg/L"}, {"measurement": "GI50", "setting": "SF-539 CNS", "result": 32.7, "unit": "mg/L"}, {"measurement": "TGI", "setting": "SF-539 CNS", "result": 87.5, "unit": "mg/L"}, {"measurement": "GI50", "setting": "NCI-H460 lung", "result": 57.6, "unit": "mg/L"}, {"measurement": "TGI", "setting": "NCI-H460 lung", "result": "> 150", "unit": "mg/L"}, {"measurement": "GI50", "setting": "BT-549 breast", "result": "> 150", "unit": "mg/L"}, {"measurement": "TGI", "setting": "BT-549 breast", "result": "> 150", "unit": "mg/L"}, {"measurement": "GI50", "setting": "OVCAR-4 ovarian", "result": 57.5, "unit": "mg/L"}, {"measurement": "TGI", "setting": "OVCAR-4 ovarian", "result": "> 150", "unit": "mg/L"}, {"measurement": "GI50", "setting": "PC-3 prostate", "result": 56.3, "unit": "mg/L"}, {"measurement": "TGI", "setting": "PC-3 prostate", "result": "> 150", "unit": "mg/L"}]}
{"smiles": "Clc1ccccc1/C=C/c1cscn1", "values": [{"measurement": "TGI", "setting": "SK-MEL-28 melanoma", "result": "> 100", "unit": "µM"}, {"measurement": "TGI", "setting": "TK-10 renal", "result": "> 100", "unit": "µM"}, {"measurement": "TGI", "setting": "UO-31 renal", "result": "> 100", "unit": "µM"}, {"measurement": "TGI", "setting": "SN12C renal", "result": "> 100", "unit": "µM"}, {"measurement": "TGI", "setting": "SF-539 CNS", "result": "> 100", "unit": "µM"}, {"measurement": "TGI", "setting": "NCI-H460 lung", "result": "> 100", "unit": "µM"}, {"measurement": "TGI", "setting": "OVCAR-4 ovarian", "result": "> 100", "unit": "µM"}]}
{"smiles": "Cc1nc2ccccc2n1C(=O)c1c(F)c(F)c(F)c(F)c1F", "values": [{"measurement": "TGI", "setting": "SF-295 CNS", "result": "> 100", "unit": "µM"}, {"measurement": "TGI", "setting": "SK-MEL-28 melanoma", "result": 82.9, "unit": "µM"}, {"measurement": "TGI", "setting": "TK-10 renal", "result": 66.3, "unit": "µM"}, {"measurement": "TGI", "setting": "UO-31 renal", "result": 33.9, "unit": "µM"}, {"measurement": "TGI", "setting": "SN12C renal", "result": 30.6, "unit": "µM"}, {"measurement": "TGI", "setting": "SF-539 CNS", "result": 29.5, "unit": "µM"}, {"measurement": "TGI", "setting": "NCI-H460 lung", "result": 52, "unit": "µM"}, {"measurement": "TGI", "setting": "BT-549 breast", "result": 39.5, "unit": "µM"}, {"measurement": "TGI", "setting": "OVCAR-4 ovarian", "result": 29, "unit": "µM"}, {"measurement": "TGI", "setting": "PC-3 prostate", "result": 71.4, "unit": "µM"}]}
{"smiles": "N#Cc1c(Cl)c2cc([N+](=O)[O-])ccc2n2c1nc1ccccc12", "values": [{"measurement": "TGI", "setting": "SF-295 CNS", "result": 62.4, "unit": "µM"}, {"measurement": "TGI", "setting": "SK-MEL-28 melanoma", "result": 30, "unit": "µM"}, {"measurement": "TGI", "setting": "TK-10 renal", "result": 8.95, "unit": "µM"}, {"measurement": "TGI", "setting": "UO-31 renal", "result": 6.82, "unit": "µM"}, {"measurement": "TGI", "setting": "SN12C renal", "result": "> 100", "unit": "µM"}, {"measurement": "TGI", "setting": "SF-539 CNS", "result": 4.28, "unit": "µM"}, {"measurement": "TGI", "setting": "NCI-H460 lung", "result": 38.5, "unit": "µM"}, {"measurement": "TGI", "setting": "BT-549 breast", "result": 34.4, "unit": "µM"}, {"measurement": "TGI", "setting": "OVCAR-4 ovarian", "result": 3.58, "unit": "µM"}, {"measurement": "TGI", "setting": "PC-3 prostate", "result": 12.5, "unit": "µM"}]}
{"smiles": "C=CC1(C)CCC2=C(CCC3C(C)(C(=O)OC)CCCC23C)C1=O", "note": "(centres undefined)", "values": [{"measurement": "TGI", "setting": "SF-295 CNS", "result": 72.5, "unit": "µM"}, {"measurement": "TGI", "setting": "TK-10 renal", "result": 56.4, "unit": "µM"}, {"measurement": "TGI", "setting": "UO-31 renal", "result": 42.8, "unit": "µM"}, {"measurement": "TGI", "setting": "SN12C renal", "result": 33, "unit": "µM"}, {"measurement": "TGI", "setting": "NCI-H460 lung", "result": 36.5, "unit": "µM"}, {"measurement": "TGI", "setting": "OVCAR-4 ovarian", "result": 28.2, "unit": "µM"}]}
{"smiles": "Cc1cc(O)c(C(C)(C)C)cc1Sc1cc(C(C)(C)C)c(O)cc1C", "values": [{"measurement": "GI50", "setting": "SF-295 CNS", "result": 2.32, "unit": "µM"}, {"measurement": "TGI", "setting": "SF-295 CNS", "result": 5.61, "unit": "µM"}, {"measurement": "GI50", "setting": "SK-MEL-28 melanoma", "result": 1.63, "unit": "µM"}, {"measurement": "TGI", "setting": "SK-MEL-28 melanoma", "result": 3.09, "unit": "µM"}, {"measurement": "GI50", "setting": "TK-10 renal", "result": 2.54, "unit": "µM"}, {"measurement": "TGI", "setting": "TK-10 renal", "result": 6.22, "unit": "µM"}, {"measurement": "GI50", "setting": "UO-31 renal", "result": 2.07, "unit": "µM"}, {"measurement": "TGI", "setting": "UO-31 renal", "result": 8.25, "unit": "µM"}, {"measurement": "GI50", "setting": "SN12C renal", "result": 2.91, "unit": "µM"}, {"measurement": "TGI", "setting": "SN12C renal", "result": "> 100", "unit": "µM"}, {"measurement": "GI50", "setting": "SF-539 CNS", "result": 2.77, "unit": "µM"}, {"measurement": "TGI", "setting": "SF-539 CNS", "result": 9, "unit": "µM"}, {"measurement": "GI50", "setting": "NCI-H460 lung", "result": 2.89, "unit": "µM"}, {"measurement": "TGI", "setting": "NCI-H460 lung", "result": 7.33, "unit": "µM"}, {"measurement": "GI50", "setting": "OVCAR-4 ovarian", "result": 3.16, "unit": "µM"}, {"measurement": "TGI", "setting": "OVCAR-4 ovarian", "result": 12.5, "unit": "µM"}, {"measurement": "GI50", "setting": "PC-3 prostate", "result": 2.77, "unit": "µM"}, {"measurement": "TGI", "setting": "PC-3 prostate", "result": 10.6, "unit": "µM"}]}
